Molecules are shown by their SMILES. Activity calls are given as the source filed them. No cut-off for these calls is given here.

The subject of assay [1] is Mus musculus. The experiment in a line: Protection against BLM-induced lung fibrosis in C57BL/6 mouse assessed as TGF-beta1 level at 25 mg/kg, ip qd for 7 days post BLM challenge measured on day 7 by ELISA (reference value: 75.39 pg/ml). It counts as functional.
In assay [2] the test system is Mus musculus. The experiment in a line: Anti-inflammatory activity in BLM-induced C57BL/6 mouse model of acute lung injury assessed as reduction in IL-1beta level in BALF at 10 and 25 mg/kg, ip qd for 7 days post BLM challenge measured on day 7 by ELISA. In kind it is functional, organism-based.
Assay [3] concerns Mus musculus. Nature of the assay: Anti-inflammatory activity in BLM-induced C57BL/6 mouse model of acute lung neutrophilic inflammation assessed as LTB4 level at 25 mg/kg, ip qd for 7 days post BLM challenge measured on day 7 (reference value: 139.23 pg/ml). It counts as functional.
Assay [4] has as its system Mus musculus. Nature of the assay: Anti-inflammatory activity in BLM-induced C57BL/6 mouse model of acute lung neutrophilic inflammation assessed as reduction in total cell number in BALF at 10 and 25 mg/kg, ip qd for 7 days post BLM challenge measured on day 7. In kind it is functional, organism-based.
In assay [5] the test system is Mus musculus. Nature of the assay: Anti-inflammatory activity in BLM-induced C57BL/6 mouse model of acute lung neutrophilic inflammation assessed as reduction in macrophage number in BALF at 10 and 25 mg/kg, ip qd for 7 days post BLM challenge measured on day 7. In kind it is functional, organism-based.
The subject of assay [6] is Mus musculus. Nature of the assay: Anti-inflammatory activity in LPS-induced C57BL/6 mouse model of acute lung injury assessed as reduction in IL-1beta level pretreated intraperitoneally for 1 hr followed LPS challenge after 24 hrs by ELISA. It counts as functional.
The test system of assay [7] is Mus musculus. Nature of the assay: Protection against BLM-induced lung fibrosis in C57BL/6 mouse assessed as TGF-beta1 level at 50 mg/kg, ip qd for 7 days post BLM challenge measured on day 14 by ELISA (reference value: 99.30 pg/ml). In kind it is functional.
In assay [8] the test system is Mus musculus. The experiment in a line: Anti-inflammatory activity in BLM-induced C57BL/6 mouse model of acute lung neutrophilic inflammation assessed as LTB4 level at 50 mg/kg, ip qd for 7 days post BLM challenge measured on day 7 (reference value: 139.23 pg/ml). It counts as functional.
For assay [9], the system named is Mus musculus. Nature of the assay: Anti-inflammatory activity in LPS-induced C57BL/6 mouse model of acute lung injury assessed as reduction in pathological changes at 10 to 50 mg/kg, ip pretreated for 1 hr followed LPS challenge measured after 24 hrs by hematoxylin and eosin staining based microscopy. In kind it is functional, organism-based.
For assay [10], the system named is Mus musculus. The experiment in a line: Anti-inflammatory activity in BLM-induced C57BL/6 mouse model of acute lung injury assessed as reduction in IL-1beta level in BALF at 25 and 50 mg/kg, ip qd for 7 days post BLM challenge measured on day 7 by ELISA. In kind it is functional, organism-based.
The subject of assay [11] is Mus musculus. The experiment in a line: Anti-inflammatory activity in BLM-induced C57BL/6 mouse model of acute lung neutrophilic inflammation assessed as reduction neutrophil count at 25 mg/kg, ip qd for 7 days post BLM challenge measured on day 7. In kind it is functional, organism-based.
Assay [12] concerns Mus musculus. The experiment in a line: Anti-inflammatory activity in BLM-induced C57BL/6 mouse model of acute lung neutrophilic inflammation assessed as reduction in number of neutrophils in BALF at 25 and 50 mg/kg, ip qd for 7 days post BLM challenge measured on day 7. It counts as functional, organism-based.
Assay [13] relates to Mus musculus. The experiment in a line: Anti-inflammatory activity in LPS-induced C57BL/6 mouse model of acute lung injury assessed as reduction in protein concentration in BALF at 10 to 50 mg/kg, ip pretreated for 1 hr followed LPS challenge measured after 24 hrs. In kind it is functional, organism-based.
In assay [14] the test system is Mus musculus. Nature of the assay: Anti-inflammatory activity in LPS-induced C57BL/6 mouse model of acute lung injury assessed as reduction in lung lesions at 10 to 50 mg/kg, ip pretreated for 1 hr followed LPS challenge measured after 24 hrs by hematoxylin and eosin staining based microscopy. In kind it is functional, organism-based.
Assay [15] relates to Mus musculus. The experiment in a line: Anti-inflammatory activity in BLM-induced C57BL/6 mouse model of acute lung neutrophilic inflammation assessed as protein concentration in BALF at 50 mg/kg, ip qd for 7 days post BLM challenge measured on day 7 (reference value: 2.39 mg/ml). It counts as functional.

For the compound `CN(C)c1ccc(C(=O)NCCCCCCC(=O)NO)cc1`, the Activity in the assay on Mus musculus [1] came out at 31.74 pg/mL; with Mus musculus [3], 37.23 pg/mL. The result with Mus musculus [2], in the assay on Mus musculus [4] and with Mus musculus [5] was Active.
Turning to `O=C(CCCCCCC(=O)Nc1ccccc1)NO` [VORINOSTAT], the Activity result with Mus musculus [6] is “Dose-dependent effect”; with Mus musculus [7] it was 49.74 pg/mL; with Mus musculus [8] it was 43.19 pg/mL; with Mus musculus [15] it was 1.79 mg/mL. The outcome with Mus musculus [9], with Mus musculus [10], with Mus musculus [11], in the assay on Mus musculus [12], in the assay with Mus musculus [13] and in the assay on Mus musculus [14] was Active.

The values above are taken from ChEMBL document CHEMBL4007425, “Drug Repurposing of Histone Deacetylase Inhibitors That Alleviate Neutrophilic Inflammation in Acute Lung Injury and Idiopathic Pulmonary Fibrosis via Inhibiting Leukotriene A4 Hydrolase and Blocking LTB4 Biosynthesis” (J Med Chem, 2017).
